Measurements taken from paper PMC3006138, “Fexinidazole – A New Oral Nitroimidazole Drug Candidate Entering Clinical Development for the Treatment of Sleeping Sickness” (PLoS Neglected Tropical Diseases, 2010).

Columns and labels:
[1] = Stability of drug substance and dosing suspensions; format: physicochemical; conditions: stability data to date
Description: page 4: […] Pharmacokinetic Report for the study No. 0403-2007 4. METHODS […] […] 4.2. […] The suspensions were stored at +4°C. […] Three samples were analyzed for each suspension. 4.3. […] Blood was taken at […] 4.4.

Excretion balance = format: in vivo, rat; conditions: for excreted percent of dose, faeces / excreted percent of dose, urine: 800 mg/kg po; for radioactivity eliminated: within 48 h
Description: Excretion balance in rats was carried out using a single oral dose of radiolabelled fexinidazole administered at the dose of 800 mg/kg (approximately 3.7 MBq/kg, 100 µCi/kg) by gastric gavage to three male albino Sprague Dawley rats. […]
This study was conducted according to Protocol N° 0162-2008 and to Amendment 1. A copy of the experimental protocol is included in Appendix 1; a copy of the amendment is included […]
FEXINIDAZOLE is a 5-nitroimidazole derivative biologically active against Trypanosoma parasites (T.b. rhodesiense and T.b. brucei) and useful in the treatment of the Human African Trypanosomiasis (HAT), known as sleeping sickness. FEXINIDAZOLE is a compound currently under development by the Sponsor.
The objective of this study was to obtain information on the elimination of radioactive drug-related material in urine and faeces following oral administration of [14C]-FEXINIDAZOLE (800 mg/kg) to male Sprague Dawley rats.
The albino Sprague Dawley rat was chosen as the species for this study since it was one of the species used in the toxicological evaluation of the test compound.
Only male animals were used as no gender differences were expected with respect to the aim of the study. The oral route of administration was chosen as this is the intended therapeutic route. The dose level was selected in agreement with the Study Sponsor and it is within the pharmacological relevant range. No overt toxicity was expected after single dosing at this […]
The study was conducted on 3 male animals after single oral administration of [14C]- FEXINIDAZOLE (800 mg/kg, approximately 3.7 MBq/kg, 100 µCi/kg).
Urine and faeces were collected up to 96 hours after administration. The radioactivity levels of drug-related material were determined in each collected sample by Liquid Scintillation […]
A summary of the experimental design is reported below:
Animal no. Date of Dosing Administered Dose Samples collected and (oral administration) analyzed
100 µCi/kg washes, carcass and skin […]
The test formulations were prepared by suspending unlabelled FEXINIDAZOLE and [14C]- FEXINIDAZOLE (see section 5.1) in 5% Tween 80 and 0.5% Methyl cellulose 400 cP (Methocel) in water, in order to obtain [14C]-FEXINIDAZOLE at the final target concentration of 80 mg/mL corresponding to a radioactivity concentration of about 370 […]
The test formulation was prepared by suspending an appropriate amount of unlabelled FEXINIDAZOLE in the dose vehicle. This formulation was homogenised using a Potter-Elvehjem homogenizer apparatus (teflon pestle of approx. 30 mm x 53 mm and glass tube of 40 mL), in order to obtain a fine suspension by up-and-down strokes, gently made by hand. The formulation was then collected and transferred from the homogeniser glass tube to the glass pot containing the [14C]-FEXINIDAZOLE.
During the preparation the test formulation was protected from light as far as possible.
The radioactivity concentration and homogeneity of the test formulation were determined, before administration, by liquid scintillation counting of triplicate weighed aliquots of test formulation. The radiolabelled test formulation was used immediately after formulation.
6.7.1. Administered Doses
The dose of [14C]-FEXINIDAZOLE was orally administered by gastric gavage at the target dose level of 800 mg/kg (radioactivity dose of about 3.7 MBq/kg, 100 µCi/kg) and at a target dose volume of about 10 mL/kg.
Individual doses were prepared for each animal by weighing the appropriate amount of the test formulation in an appropriate syringe for oral administration. The amount of dose administered to each animal was determined by weighing the filled syringe before the treatment and the empty syringe after dose administration. The actual dose received by each animal was calculated using the weight of the administered formulation, the radioactivity concentration and the final specific activity of the test material.
The actual doses received by each animal are documented in Table 1. […]

[2] = 0-96 h, listed as [14C]-FEXINIDAZOLE

CSc1ccc(OCc2ncc([N+](=O)[O-])n2C)cc1 [Fexinidazole, 1-methyl-2-((p-(methylthio)phenoxy)methyl)-5-nitroimidazole]
stability [1]: very stable | overall recovery of total radioactivity (Excretion balance; 0-96 h): approximately 93% | percent of dose, cage washing (Excretion balance; 0-96 h): 2.73% | radioactivity recovered in all the excreta (including cage washes) (Excretion balance; 0-96 h): Approximately 91.4% | overall recovery of total radioactivity (Excretion balance; [2]): 92.87% | excreted percent of dose, faeces (Excretion balance; 0-96 h): 59% | excreted percent of dose, urine (Excretion balance; 0-96 h): 30% | excreted percent of dose, faeces (Excretion balance; [2]): 58.77% | excreted percent of dose, urine (Excretion balance; [2]): 29.92% | dose recovered from the carcass (and skin) (Excretion balance; 96 h): About 1.4% | percent of dose, carcass (Excretion balance; 96 h): 1.01% | percent of dose, skin (Excretion balance; 96 h): 0.43% | radioactivity eliminated (Excretion balance): 84% | radioactivity eliminated (Excretion balance; listed as [14C]-FEXINIDAZOLE): about 84.3%
